One may read the viability as the share of living cells, or the viability signal relative to a control. What is called pKd is the negative decadic logarithm of the Kd, by convention in mol/L.

Molecules are shown by their SMILES. pKd: −log10 of the molar value. Read-outs that look alike come from different tables or passages of the source.

One data set is described as follows: Cytotoxicity MTT assay. Particulars: human, HEK 293 cells, read-out: cell viability. It is filed as cell-based, Human. The method, then:
(§1) In vitro cytotoxicity studies were performed for DT(Ch)2 in the concentration range of 0.5–50 μg/mL against HEK 293 cell lines seeded in 96-well plates. The experimental procedure followed was in accordance with the previously reported literature ([32]). […] Cell cultures were grown in DMEM (Dulbecco’s modified eagle medium, high glucose) and the culture was supplemented with 1% penicillin streptomycin and 10% FBS (fetal bovine serum). The cells were incubated with different compound concentrations in a 5% CO2 incubator at 37°C. Following the addition of MTT [3-(4,5-dimethylthiazol-2-yl)-2,5-diphenyl-2H-tetrazolium bromide] to each cell (100 μL), the systems were incubated for an additional 4 h. The cell viability was reported in accordance with the mitochondrial activity measured via absorbance at 570 nm. The experiments were performed in triplicates.
For orientation: Formazan colour is commonly taken as a measure of viable cells.

Another data set concerns HEK 293 cells. As to the kind of experiment: Cytotoxicity MTT assay. It is filed as cell-based, Human. Particulars: 0.5–50 μg/mL, after 48 h of incubation. How it is done:
as §1

A short description of a further data set: Hemolysis assay. It is filed as cell-based. The conditions noted are these: human, red blood cells (washed RBC pellet resuspended in PBS), pH 7.4; RBCs, 0.125–2 mg/mL of ligand. The method, then: In accordance with the previous literature, heparinized blood from healthy volunteers was used for the hemolysis assay ([33]). Blood serum was separated by centrifugation and the obtained RBC pellet was washed with PBS (pH = 7.4) repeatedly. The pellet was finally resuspended in PBS and added in equal amounts to different vials. Similarly, varying concentrations of the ligand in equal volume were incubated with the RBC pellet in the ratio of 8:2 at 37°C. The Triton X-100 and phosphate buffer saline as positive and negative control, respectively, were also incubated with RBCs under similar conditions. A total of 100 μL of solvent was centrifuged and removed at each time point: 15 min, 1, 2, 4, and 24 h. The absorbance of the supernatant was measured at 541 nm wavelength in a 96-well plate by a Synergy 2 Multi-Mode Reader (BioTek Instruments, United States). The experiments were carried out in triplicates and the extent of hemolysis was calculated according to the following formula:
Hemolysisratio=(λ(test)-λ(negativecontrol))/(λ(positivecontrol)-λ(negativecontrol))×100%

The conditions of data set [1]: cited from earlier work.
In a further data set the target is Aβ aggregates. The conditions noted are these: cited from earlier work.

Turning to `CN(C)c1ccc(/C=C/C(=O)c2ccc(OCCNC(=O)CN(CCN(CCN(CC(=O)O)CC(=O)NCCOc3ccc(C(=O)/C=C/c4ccc(N(C)C)cc4)cc3)CC(=O)O)CC(=O)O)cc2)cc1` [DT(Ch)2, 6,9-bis(carboxymethyl)-14-(4-[(E)-3-(4-(dimethylamino)phenyl)acryloyl]phenoxy)-3-(2-[(2-(4-[(E)-3-(4-(dimethylamino)phenyl)acryloyl]phenoxy)ethyl)amino]-2-oxoethyl)-11-oxo-3,6,9,12-tetraazatetradecanoic acid], the viability is about 85% in “Cytotoxicity MTT assay” (throughout the concentration range and observation time); 88 to 95% in “Cytotoxicity MTT assay” (up to 24 h). Besides, the “toxicity (MTT assay)” value in the data set on HEK 293 cells is under 17%. In addition, in the data set “Hemolysis assay”, the hemolysis was under 5%.

In the case of `CNc1ccc(-c2nc3ccc(O)cc3s2)cc1` [PiB, Pittsburgh compound B], in data set [1], the “ratio of brain2min/brain30min” value is 12.

As to `O=C([O-])CN(CCN(CC(=O)[O-])CC(=O)[O-])CCN(CC(=O)[O-])CC(=O)[O-].[99Tc+4]` [^99mTc–DTPA], in data set [1] (after 30 min, known value, no reference given), the brain uptake is reported as 0.04%.

For the compound `CN(C)c1ccc(C=CC(=O)c2ccc(I)cc2)cc1` [^125I-DMIC], the pKd at Aβ aggregates is 8.38.
